Consider 21 molecules from ChEMBL document CHEMBL5356967, “Design, synthesis, evaluation and optimization of novel azole analogues as potent antifungal agents” (Bioorg Med Chem, 2024).

Holding throughout (type): functional
The subject of assay [1] is Candida tropicalis. The experiment in a line: Antifungal activity against Candida tropicalis 0370354 assessed as inhibition of fungal growth incubated for 24 hrs by broth microdilution method.
Assay [2] concerns Aspergillus fumigatus. The experiment in a line: Antifungal activity against Aspergillus fumigatus 0504656 assessed as inhibition of fungal growth incubated for 48 hrs by broth microdilution method. (In general: Dilution methods test growth across graded concentrations, often in twofold steps.)
Assay [3] concerns Cryptococcus neoformans. As to the kind of experiment: Antifungal activity against Cryptococcus neoformans ATCCBLS108 assessed as inhibition of fungal growth incubated for 72 hrs by broth microdilution method.
Assay [4] relates to Nannizzia gypsea. As to the kind of experiment: Antifungal activity against Microsporum gypseum 0310388 assessed as inhibition of fungal growth incubated for 24 hrs by broth microdilution method.
In assay [5] the test system is Candida parapsilosis. The experiment in a line: Antifungal activity against Candida parapsilosis 0306392 assessed as inhibition of fungal growth incubated for 24 hrs by broth microdilution method. The conditions noted are these: Lodderomyces parapsilosis.
Assay [6] concerns Trichophyton rubrum. The experiment in a line: Antifungal activity against Trichophyton rubrum 0501124 assessed as inhibition of fungal growth incubated for 24 hrs by broth microdilution method.
Assay [7] concerns Candida albicans. The experiment in a line: Antifungal activity against Candida albicans Y0109 assessed as inhibition of fungal growth incubated for 24 hrs by broth microdilution method.
In assay [8] the test system is Candida albicans. As to the kind of experiment: Antifungal activity against Candida albicans SC5314 assessed as inhibition of fungal growth incubated for 24 hrs by broth microdilution method.
Assay [9] concerns Candida albicans. The experiment in a line: Antifungal activity against fluconazole-resistant Candida albicans 901 assessed as inhibition of fungal growth incubated for 24 hrs by broth microdilution method.
In assay [10] the test system is Candida albicans. As to the kind of experiment: Antifungal activity against fluconazole-resistant Candida albicans 904 assessed as inhibition of fungal growth incubated for 24 hrs by broth microdilution method.

Converted amounts (≈) assume the structure as drawn.

Turning to `Oc1ccc([C@@]2(Cn3ccnc3)OC[C@H](Cn3cc(C4CC4)nn3)O2)c(F)c1` (mixture of isomers), the MIC80 (in general, the lowest concentration that inhibits either 80% of growth or 80% of the strains tested, depending on the study) in assay [1] turned out to be 0.25 µg/mL; in assay [2] it was 16 µg/mL; in assay [3] it was 0.25 µg/mL; in [4] it was 0.125 µg/mL; in assay [5] it was 0.25 µg/mL; in assay [6] it was 4 µg/mL. For the same molecule, the MIC80 in assay [7] amounted to 0.063 µg/mL; in [8], 0.25 µg/mL.
Turning to `Oc1ccc([C@@]2(Cn3ccnc3)OC[C@H](Cn3cc(COc4ccccc4)nn3)O2)c(F)c1` (mixture of isomers), the MIC80 stood at 0.125 µg/mL in assay [1]; 16 µg/mL in assay [2]; 0.063 µg/mL in assay [3]; 0.25 µg/mL in assay [4]; 0.125 µg/mL in assay [5]; 1 µg/mL in assay [6]. Further, the MIC80 in assay [7] and in assay [8] was 0.063 µg/mL throughout.
Turning to `CNCCc1cn(C[C@H]2CO[C@](Cn3ccnc3)(c3ccc(O)cc3F)O2)nn1` (mixture of isomers), the MIC80 was 0.25 µg/mL in assay [1]; greater than 64 µg/mL in assay [2]; 0.125 µg/mL in assay [3]; 0.25 µg/mL in [4]; 0.25 µg/mL in [5]; 1 µg/mL in [6]. In addition, the MIC80 turned out to be 0.063 µg/mL in assay [7] and 0.125 µg/mL in assay [8].
`Oc1ccc([C@@]2(Cn3ccnc3)OC[C@H](Cn3cc(-c4ccccn4)nn3)O2)c(F)c1` (mixture of isomers): the MIC80 in assay [1] came out at 4 µg/mL; in assay [2], 16 µg/mL; in assay [3] it was 0.125 µg/mL; in [4], 0.125 µg/mL; in assay [5], 0.25 µg/mL; in assay [6], 4 µg/mL. In addition, the MIC80 in assay [7] is 0.063 µg/mL; in assay [8], 0.25 µg/mL.
`CCCc1ccc(-c2cn(C[C@H]3CO[C@](Cn4ccnc4)(c4ccc(O)cc4F)O3)nn2)cc1` (mixture of isomers): the MIC80 in assay [1] was 4 µg/mL; in assay [2], greater than 64 µg/mL; in assay [3], 0.25 µg/mL; in [4], 2 µg/mL; in assay [5], 2 µg/mL; in [6], 2 µg/mL. Besides, the MIC80 in [7] came to 0.063 µg/mL; in assay [8], 0.125 µg/mL.
As to `Cc1ccc(-c2cn(C[C@H]3CO[C@](Cn4ccnc4)(c4ccc(O)cc4F)O3)nn2)cc1` (mixture of isomers), the MIC80 was 0.25 µg/mL in assay [1]; greater than 64 µg/mL in assay [2]; 2 µg/mL in assay [3]; 4 µg/mL in [4]; 2 µg/mL in [5]; 4 µg/mL in [6]. Also, the MIC80 in [7] and in assay [8] was 0.063 µg/mL each time.
Turning to `Cc1cccc(-c2cn(C[C@H]3CO[C@](Cn4ccnc4)(c4ccc(O)cc4F)O3)nn2)c1` (mixture of isomers), the MIC80 was 0.25 µg/mL in [1]; greater than 64 µg/mL in assay [2]; 0.125 µg/mL in [3]; 0.125 µg/mL in assay [4]; 0.25 µg/mL in [5]; 2 µg/mL in assay [6]. Also, the MIC80 in assay [7] and in assay [8] was 0.063 µg/mL each time.
On to `CC1CCN(CCc2cn(C[C@H]3CO[C@](Cn4ccnc4)(c4ccc(O)cc4F)O3)nn2)CC1` (mixture of isomers), for which the MIC80 is 0.25 µg/mL in assay [1]; greater than 64 µg/mL in [2]; 0.063 µg/mL in assay [3]; 0.25 µg/mL in [4]; 0.125 µg/mL in [5]; 1 µg/mL in assay [6]. Also, the MIC80 in assay [7] is 0.063 µg/mL; in [8], 0.016 µg/mL.
`Oc1ccc([C@@]2(Cn3ccnc3)OC[C@H](Cn3cc(-c4ccccc4)nn3)O2)c(F)c1` (mixture of isomers): the MIC80 in assay [1] was 0.5 µg/mL; in assay [2], greater than 64 µg/mL; in assay [3], 0.125 µg/mL; in [4], 0.125 µg/mL; in assay [5], 0.125 µg/mL; in [6], 0.25 µg/mL. The MIC80 is 0.063 µg/mL in [7] and 0.125 µg/mL in [8].
As for `Oc1ccc([C@@]2(Cn3ccnc3)OC[C@H](Cn3cc(CCN4CCC(O)CC4)nn3)O2)c(F)c1` (mixture of isomers), the MIC80 was found to be 0.25 µg/mL in assay [1]; 16 µg/mL in assay [2]; 0.125 µg/mL in assay [3]; 0.125 µg/mL in assay [4]; 0.125 µg/mL in assay [5]; 0.25 µg/mL in [6]. For the same molecule, the MIC80 in assay [7] came to 0.063 µg/mL; in [8], 0.016 µg/mL.
For the molecule `Oc1ccc([C@@]2(Cn3ccnc3)OC[C@H](Cn3cc(CCN4CCCC4)nn3)O2)c(F)c1` (mixture of isomers), the MIC80 came to 0.25 µg/mL in [1]; 16 µg/mL in [2]; 0.063 µg/mL in assay [3]; 0.5 µg/mL in assay [4]; 0.125 µg/mL in assay [5]; 0.25 µg/mL in assay [6]. Moreover, the MIC80 in assay [7] and in [8] was 0.063 µg/mL throughout.
Take `Oc1ccc([C@@]2(Cn3ccnc3)OC[C@H](Cn3cc(C(O)c4ccccc4)nn3)O2)c(F)c1` (mixture of isomers): the MIC80 in assay [1] is 0.125 µg/mL; in assay [2], greater than 64 µg/mL; in [3], 0.063 µg/mL; in [4] it was 0.25 µg/mL; in assay [5], 0.125 µg/mL; in [6], 1 µg/mL. Besides, the MIC80 was determined as 0.063 µg/mL in assay [7] and 0.125 µg/mL in [8].
Regarding `Oc1ccc([C@@]2(Cn3ccnc3)OC[C@H](Cn3cc(-c4cccc(F)c4)nn3)O2)c(F)c1` (mixture of isomers), the MIC80 is 1 µg/mL in assay [1]; greater than 64 µg/mL in assay [2]; 1 µg/mL in assay [3]; 1 µg/mL in assay [4]; 0.125 µg/mL in [5]; 2 µg/mL in assay [6]. Also, the MIC80 in assay [7] was 0.063 µg/mL; in assay [8], 0.125 µg/mL.
`Oc1ccc([C@@]2(Cn3ccnc3)OC[C@H](Cn3cc(CCNC4CC4)nn3)O2)c(F)c1` (mixture of isomers): the MIC80 in assay [1] is 0.125 µg/mL; in assay [2], greater than 64 µg/mL; in assay [3], 0.125 µg/mL; in assay [4], 0.25 µg/mL; in [5], 0.25 µg/mL; in assay [6], 0.125 µg/mL. Moreover, the figures for the MIC80 in assay [7] and in [8] were 0.063 µg/mL and 0.125 µg/mL, respectively.
As to `CC(C)(C)c1ccc(-c2cn(C[C@H]3CO[C@](Cn4ccnc4)(c4ccc(O)cc4F)O3)nn2)cc1` (mixture of isomers), the MIC80 in [1] was 0.125 µg/mL; in [2] it was greater than 64 µg/mL; in assay [3], 0.063 µg/mL; in [4] it was 0.25 µg/mL; in assay [5], 0.125 µg/mL; in assay [6], 0.25 µg/mL. Further, the MIC80 in [7] and in assay [8] was 0.063 µg/mL in each case.
For `Oc1ccc([C@@]2(Cn3ccnc3)OC[C@H](Cn3cc(-c4ccc(F)cc4)nn3)O2)c(F)c1` (mixture of isomers), the MIC80 is 4 µg/mL in [1]; greater than 64 µg/mL in assay [2]; 0.125 µg/mL in assay [3]; 0.125 µg/mL in assay [4]; 0.25 µg/mL in assay [5]; 4 µg/mL in assay [6]. Besides, the values for the MIC80 in assay [7] and in assay [8] were 0.063 µg/mL and 0.125 µg/mL, respectively.
`N#CCc1ccc(-c2cn(C[C@H]3CO[C@](Cn4ccnc4)(c4ccc(O)cc4F)O3)nn2)cc1` (mixture of isomers): the MIC80 in [1] turned out to be 1 µg/mL; in assay [2] it was 16 µg/mL; in [3], 0.125 µg/mL; in assay [4] it was 0.125 µg/mL; in [5], 0.125 µg/mL; in assay [6] it was 0.25 µg/mL. The MIC80 in assay [7] was determined as 0.063 µg/mL; in [8], 0.125 µg/mL.
Consider `COc1ccc(-c2cn(C[C@H]3CO[C@](Cn4ccnc4)(c4ccc(O)cc4F)O3)nn2)cc1` (mixture of isomers), for which the MIC80 was 0.25 µg/mL in assay [1]; greater than 64 µg/mL in [2]; 0.063 µg/mL in assay [3]; 0.25 µg/mL in assay [4]; 0.125 µg/mL in assay [5]; 0.5 µg/mL in assay [6]. The MIC80 in [7] and in assay [8] was 0.063 µg/mL in each case.
Take `CCC(C)n1ncn(-c2ccc(N3CCN(c4ccc(OCC5COC(Cn6cncn6)(c6ccc(Cl)cc6Cl)O5)cc4)CC3)cc2)c1=O` (stereo not given) [ITRACONAZOLE]: the MIC80 in assay [1] came out at 0.25 µg/mL (≈ 0.354 µM); in assay [2] it was 1 µg/mL (≈ 1.42 µM); in assay [3], 0.063 µg/mL (≈ 0.0893 µM); in assay [4], 0.25 µg/mL (≈ 0.354 µM); in assay [5], 0.25 µg/mL (≈ 0.354 µM); in assay [6], 0.063 µg/mL (≈ 0.0893 µM). Besides, the MIC80 was 0.063 µg/mL (≈ 0.0893 µM) in assay [7] and 0.25 µg/mL (≈ 0.354 µM) in assay [8].
For `CC(=O)N1CCN(c2ccc(OC[C@@H]3CO[C@@](Cn4ccnc4)(c4ccc(Cl)cc4Cl)O3)cc2)CC1` [LEVOKETOCONAZOLE], the MIC80 is 32 µg/mL (≈ 60.2 µM) in assay [1]; greater than 64 µg/mL in assay [2]; 1 µg/mL (≈ 1.88 µM) in [3]; 16 µg/mL (≈ 30.1 µM) in assay [4]; 2 µg/mL (≈ 3.76 µM) in assay [5]; 4 µg/mL (≈ 7.53 µM) in assay [6]. The MIC80 in [9] was greater than 64 µg/mL; in assay [7], 1 µg/mL (≈ 1.88 µM); in assay [10] it was greater than 64 µg/mL; in assay [8], 1 µg/mL (≈ 1.88 µM).
Take `C[C@@H](c1ncncc1F)[C@](O)(Cn1cncn1)c1ccc(F)cc1F` [VORICONAZOLE]: the MIC80 in assay [1] was 0.063 µg/mL (≈ 0.18 µM); in [2], 0.25 µg/mL (≈ 0.716 µM); in assay [3] it was 0.016 µg/mL (≈ 0.0458 µM); in assay [4], 0.063 µg/mL (≈ 0.18 µM); in [5], 0.016 µg/mL (≈ 0.0458 µM); in assay [6] it was 0.063 µg/mL (≈ 0.18 µM). The MIC80 in [7] and in assay [8] was 0.016 µg/mL (≈ 0.0458 µM) throughout.
